Assay results reported in US10668047B2, “Aziridine containing DNA alkylating agents” (priority 2015, dated 2020).
pIC50: −log10 of the molar value. Where two headings read alike, the source gives them in different places.

Test system: H460 non-cell lung cancer human tumor cell line
Test: In vitro human tumor cell line cytotoxicity (proliferation) assay, AlamarBlue
Format: cell-based
Protocol: IC50 values are reported in micromolar and result from exposure of compound at various concentrations for 2 hrs followed by a wash step and addition of fresh media followed by growth and cell viability staining and comparison to a media only treated control.
Specifically, exponentially growing cells are seeded at a density of 4×10^3 cells per well in a 96 well plate and incubated at 37° C. in 5% CO2, 95% air and 100% relative humidity for 24 hours prior to addition of test compounds. Compounds are solubilized in 100% DMSO at 200 times the desired final test concentration. At the time of drug addition, compounds are further diluted to 4 times the desired final concentration with complete medium. Aliquots of 50 μl of compound at specified concentrations are added to microtiter wells already containing 150 μl of medium, resulting in the final drug concentration reported. After drug addition, the plates are incubated for an additional 2 hours at 37° C., 5% CO2, 95% air, and 100% relative humidity, then the drug is washed off and fresh medium is added and the plates are incubated for addition 70 hrs at 37° C., 5% CO2, 95% air and 100% relative humidity. At the end of this incubation, the viable cells are quantified using the AlamarBlue assay. The drug concentration resulting in growth inhibition of 50% (IC50) is calculated using Prism software (Irvine, Calif.), and the results are listed in the table.

[1] = Homo sapiens, NCI-H460, H460 cells, under air, 2 hrs exposure, wash, then 70 hrs growth, read-out: IC50 (air)
[2] = Homo sapiens, NCI-H460, H460 cells, under nitrogen, 2 hrs exposure, wash, then 70 hrs growth, read-out: IC50 (N2)
[3] = Homo sapiens, NCI-H460, read-out: IC50 (N2), H460 cells, under nitrogen, 2 hrs exposure, wash, then 70 hrs growth
[4] = Homo sapiens, NCI-H460, read-out: IC50 (air), H460 cells, under air, 2 hrs exposure, wash, then 70 hrs growth

CC(OP(=O)(N1CC1)N1CC1)c1ccc([N+](=O)[O-])c(S(C)(=O)=O)c1 (centres unmarked) [compound 2700]
pIC50 [1]: 3.43
pIC50 [2]: 3.46

CCN(CC)c1cc(C(C)OP(=O)(N2CC2)N2CC2)ccc1[N+](=O)[O-] (centres unmarked) [compound 2701]
pIC50 [1]: 4.18
pIC50 [2]: 5.89

CC(OP(=O)(N1CC1)N1CC1)c1ccc([N+](=O)[O-])c(N2CCN(C)CC2)c1 (centres unmarked) [compound 2702]
pIC50 [1]: 4.33
pIC50 [2]: 6.10

CC(OP(=O)(N1CC1)N1CC1)c1ccc([N+](=O)[O-])c(-n2ccnc2)c1 (centres unmarked) [compound 2703]
pIC50 (H460 cells, under air, 2 hrs exposure, wash, then 70 hrs growth, read-out: IC50 (air)): 4.00
pIC50 (H460 cells, under nitrogen, 2 hrs exposure, wash, then 70 hrs growth, read-out: IC50 (N2)): 6.70

CC(OP(=O)(N1CC1)N1CC1)c1ccc([N+](=O)[O-])cc1F (centres unmarked) [compound 2706]
pIC50 [1]: 4.85
pIC50 [2]: 7.52

CC(OP(=O)(N1CC1)N1CC1)c1ccc([N+](=O)[O-])c(N(C)O)c1 (centres unmarked) [compound 2707]
pIC50 [1]: 6.70
pIC50 [2]: 7.00

CC(OP(=O)(N1CC1)N1CC1)c1ccc([N+](=O)[O-])c(N2CCCC2)c1 (centres unmarked) [compound 2708]
pIC50 [1]: 4.70
pIC50 [2]: 5.52

CC(OP(=O)(N1CC1)N1CC1)c1ccc([N+](=O)[O-])c(N2CCC3(CC2)OCCO3)c1 (centres unmarked) [compound 2709]
pIC50 [1]: 4.59
pIC50 [2]: 5.62

CC(OP(=O)(N1CC1)N1CC1)c1ccc([N+](=O)[O-])c(C#N)c1 (centres unmarked) [compound 2710]
pIC50 [1]: 5.52
pIC50 [2]: 7.52

CC(C)(C)[Si](C)(C)OCCC(OP(=O)(N1CC1)N1CC1)c1ccc([N+](=O)[O-])cc1 (centres unmarked) [compound 2712]
pIC50 [1]: 6.52
pIC50 [2]: 6.70

O=[N+]([O-])c1ccc(C(CCO)OP(=O)(N2CC2)N2CC2)cc1 (centres unmarked) [compound 2714]
pIC50 [1]: 4.03
pIC50 [2]: 6.30

CC(OP(=O)(N1CC1)N1CC1)c1cc(F)c([N+](=O)[O-])cc1F (centres unmarked) [compound 2721]
pIC50 [1]: 5.05
pIC50 [2]: 7.70

CC1=NCCN1c1cc(C(C)OP(=O)(N2CC2)N2CC2)ccc1[N+](=O)[O-] (centres unmarked) [compound 2722]
pIC50 [1]: 5.30
pIC50 [2]: 6.05

CC(OP(=O)(N1CC1)N1CC1)c1ccc([N+](=O)[O-])c(N2CCNC2(C)O)c1 (centres unmarked) [compound 2723]
pIC50 [1]: 3.38
pIC50 [2]: 4.54

CC(OP(=O)(N1CC1)N1CC1)c1ccc([N+](=O)[O-])c(NS(C)(=O)=O)c1 (centres unmarked) [compound 2726]
pIC50 [1]: 4.72
pIC50 [2]: 6.70

CC(OP(=O)(N1CC1)N1CC1)c1ccc([N+](=O)[O-])c(-n2cncn2)c1 (centres unmarked) [compound 2727]
pIC50 [1]: 4.51
pIC50 [2]: 6.70

CC(OP(=O)(N1CC1)N1CC1)c1ccc([N+](=O)[O-])c(-n2cnc([N+](=O)[O-])c2)c1 (centres unmarked) [compound 2728]
pIC50 [3]: 6.70
pIC50 [4]: 4.66

CCN(CC)c1cc(C(C)OP(=O)(N2CC2)N2CC2)c(F)cc1[N+](=O)[O-] (centres unmarked) [compound 2730]
pIC50 [1]: 4.66
pIC50 [2]: 6.15

CC(OP(=O)(N1CC1)N1CC1)c1cc(-n2ccnc2)c([N+](=O)[O-])cc1F (centres unmarked) [compound 2731]
pIC50 [1]: 4.89
pIC50 [2]: 7.00

CC(OP(=O)(N1CC1)N1CC1)c1cc(N2CCN(C)CC2)c([N+](=O)[O-])cc1F (centres unmarked) [compound 2732]
pIC50 [1]: 4.64
pIC50 [2]: 6.70

CC(OP(=O)(N1CC1)N1CC1)c1cc(-n2cncn2)c([N+](=O)[O-])cc1F (centres unmarked) [compound 2733]
pIC50 [1]: 5.55
pIC50 [2]: 7.52

CC(OP(=O)(N1CC1)N1CC1)c1ccc([N+](=O)[O-])c(-n2ccc3ccccc32)c1 (centres unmarked) [compound 2734]
pIC50 [1]: 5.60
pIC50 [2]: 5.80

CCCCCCCCN(C)c1cc(C(C)OP(=O)(N2CC2)N2CC2)ccc1[N+](=O)[O-] (centres unmarked) [compound 2735]
pIC50 [1]: 5.51
pIC50 [2]: 5.70

CC(OP(=O)(N1CC1)N1CC1)c1ccc([N+](=O)[O-])c(N(C)CCN(C)C)c1 (centres unmarked) [compound 2736]
pIC50 [1]: 3.82
pIC50 [2]: 5.55

CC(OP(=O)(N1CC1)N1CC1)c1ccc([N+](=O)[O-])c(-n2cnc3ccccc32)c1 (centres unmarked) [compound 2737]
pIC50 [1]: 4.68
pIC50 [2]: 6.70

Cc1nccn1-c1cc(C(C)OP(=O)(N2CC2)N2CC2)ccc1[N+](=O)[O-] (centres unmarked) [compound 2738]
pIC50 [1]: 4.70
pIC50 [2]: 6.70

CC(OP(=O)(N1CC1)N1CC1)c1ccc([N+](=O)[O-])c(N2CCCC[C@H]2C)c1 (some centres unmarked) [compound 2740]
pIC50 [1]: 4.62
pIC50 [2]: 5.85

CC(OP(=O)(N1CC1)N1CC1)c1cc(-n2cnc([N+](=O)[O-])c2)c([N+](=O)[O-])cc1F (centres unmarked) [compound 2742]
pIC50 [3]: 7.00
pIC50 [4]: 5.52

CC(OP(=O)(N1CC1)N1CC1)c1cc(-n2cncc2[N+](=O)[O-])c([N+](=O)[O-])cc1F (centres unmarked) [compound 2743]
pIC50 [3]: 6.70
pIC50 [4]: 5.43

CC(OP(=O)(N1CC1)N1CC1)c1cc(-n2cnc3ccccc32)c([N+](=O)[O-])cc1F (centres unmarked) [compound 2744]
pIC50 [1]: 5.57
pIC50 [2]: 7.30

CC(OP(=O)(N1CC1)N1CC1)c1cc(N(C)CCN(C)C)c([N+](=O)[O-])cc1F (centres unmarked) [compound 2745]
pIC50 [1]: 4.24
pIC50 [2]: 6.52

CC(OP(=O)(N1CC1)N1CC1)c1ccc([N+](=O)[O-])c(-n2cnc(CO)c2)c1 (centres unmarked) [compound 2746]
pIC50 [1]: 3.66
pIC50 [2]: 5.59

Cc1cn(-c2cc(C(C)OP(=O)(N3CC3)N3CC3)ccc2[N+](=O)[O-])cn1 (centres unmarked) [compound 2747]
pIC50 [1]: 4.41
pIC50 [2]: 6.52

CC(OP(=O)(N1CC1)N1CC1)c1ccc([N+](=O)[O-])c(-n2cccn2)c1 (centres unmarked) [compound 2748]
pIC50 [1]: 4.42
pIC50 [2]: 6.52

CC(OP(=O)(N1CC1)N1CC1)c1ccc([N+](=O)[O-])c(-n2cnc(-c3ccccc3)c2)c1 (centres unmarked) [compound 2749]
pIC50 [1]: 5.52
pIC50 [2]: 7.00

CC(OP(=O)(N1CC1)N1CC1)c1ccc([N+](=O)[O-])c(N2CCC(c3ccccc3)CC2)c1 (centres unmarked) [compound 2750]
pIC50 [1]: 4.64
pIC50 [2]: 5.62

CC(OP(=O)(N1CC1)N1CC1)c1ccc([N+](=O)[O-])c(N2CCN(C(C)C)CC2)c1 (centres unmarked) [compound 2751]
pIC50 [1]: 4.44
pIC50 [2]: 5.77

CC(OP(=O)(N1CC1)N1CC1)c1ccc([N+](=O)[O-])c(N2CCC(O)CC2)c1 (centres unmarked) [compound 2752]
pIC50 [1]: 3.57
pIC50 [2]: 5.24

COCCN(CCOC)c1cc(C(C)OP(=O)(N2CC2)N2CC2)ccc1[N+](=O)[O-] (centres unmarked) [compound 2753]
pIC50 [1]: 4.72
pIC50 [2]: 5.49

Cc1nccn1-c1cc(C(C)OP(=O)(N2CC2)N2CC2)c(F)cc1[N+](=O)[O-] (centres unmarked) [compound 2755]
pIC50 [1]: 5.36
pIC50 [2]: 7.52

CC(OP(=O)(N1CC1)N1CC1)c1ccc([N+](=O)[O-])c(N2CCN(Cc3cnc([N+](=O)[O-])n3C)CC2)c1 (centres unmarked) [compound 2756]
pIC50 [3]: 5.55
pIC50 [4]: 4.35

CC(OP(=O)(N1CC1)N1CC1)c1ccc([N+](=O)[O-])c(N(C)CCN2CCOCC2)c1 (centres unmarked) [compound 2757]
pIC50 [3]: 5.42
pIC50 [4]: 3.42

CC(OP(=O)(N1CC1)N1CC1)c1ccc([N+](=O)[O-])c(-n2cnc(C(C)(C)C)c2)c1 (centres unmarked) [compound 2759]
pIC50 [1]: 4.00
pIC50 [2]: 6.40

CC(OP(=O)(N1CC1)N1CC1)c1cc(-n2cnc(CO)c2)c([N+](=O)[O-])cc1F (centres unmarked) [compound 2760]
pIC50 [1]: 4.28
pIC50 [2]: 5.62

CC(OP(=O)(N1CC1)N1CC1)c1ccc([N+](=O)[O-])c(-n2ccc3ncccc32)c1 (centres unmarked) [compound 2763]
pIC50 [1]: 5.30
pIC50 [2]: 7.00

CC(OP(=O)(N1CC1)N1CC1)c1ccc([N+](=O)[O-])c(-n2ccnc2Cl)c1 (centres unmarked) [compound 2765]
pIC50 [1]: 5.09
pIC50 [2]: 7.52
